Measurements taken from patent publication US20080027098A1, “Derivatives of alpha-phenylthiocarboxylic and alpha-phenyloxy-carboxylic acids useful for the treatment of diseases responding to PPARalpha activation” (SIGMA-TAU INDUSTRIE FARMACEUTICHE RIUNITE S.p.A., priority 2002, published 2008).
Marks after values point to notes of the source that are not given here.

Key:
db/db mice = test: Increase in HDL-cholesterol levels in db/db mice; type: in vivo; conditions: for Increase in HDL-cholesterol levels (%): further experiment, oral twice daily 14 days, dose equimolar to 25 mg/kg of ST2195, 8 hours after last treatment
Protocol: Increase in HDL-Cholesterol Levels in db/db Mice
In this experiment db/db mice were used in which PPARα expression is above normal (Memon et al., Endocrinology 2000, 4021-4031) and HDL-cholesterol levels are substantially elevated (Silver et al., J Biol Chem 1999, 274: 4140-4146).
The C57BL[KsJ db/db mice were acclimatised for one week in standard conditions (22±2° C.; 55±15% humidity; 15-20 air changes/hour; 12 hours light/darkness cycle with light from 7.00 a.m. to 7 p.m.) with a standard 4 RF21 diet (Mucedola). Blood samples were taken in post-absorption conditions (fasting from 8.30 a.m. to 4.30 p.m.) from the caudal vein with the aid of a Jelco 22G catheter (Johnson and Johnson). Glucose, insulin, triglyceride, cholesterol, free fatty acid and urea levels were checked in plasma for a homogeneous distribution of the mice in the treatment groups.
At the beginning of treatment the animals' body weight was checked and arrangements were made to monitor their water and feed consumption. […]
The compound tested, obtained as described in example 4 (ST 1929) was administered at the dose of 24 mg/kg in 10 ml/kg of vehicle (1% CMC containing Tween 80 0.5% in deionized H2O).
The other compounds tested were also administered at a dose equivalent to that in example 4.
Ciprofibrate, a known PPARα agonist (Varanasi et al., J Biol Chem 1996, 271: 2147-2155; Latruffe et al. Cell Biochem Biophys 2000, 32 Spring: 213-220) was administered at the dose of 20 mg/kg (Dwivedi et al., Toxicol Pathol 1989, 17: 16-26; Qi et al., Proc Natl Acad Sci USA 1999, 96: 1585-1590).
The animals were sacrificed (by decapitation) in conditions of post-absorption (fasting from 9.30 a.m. to 4.30 p.m.) 7 hours after the last treatment. The levels of a number of important lipid and carbohydrate metabolism parameters were determined in the serum.
The HDL-cholesterol levels were measured by treating the serum with phosphotungstic-acid-based precipitating reagent (ABX Diagnostics) which removes the chylomicrons, very low density and low density lipoproteins and determining the HDL-cholesterol levels in the supernatant with the aid of the Cholesterol Kit (ABX Diagnostics) and the Cobas Mira S Autoanalyzer (Roche).
In a further experiment, where the above reported ST2195 was used as reference compound, db/db mice were treated orally twice daily (8.30 a.m. and 6.30 p.m.) for 14 days with the test items (equimolar to 25 mg/kg of ST2 195) giving the following results reported in Table 3: […]

Gal4DBD/PPARαLBD = molecular target: T1, Gal4DBD/PPARαLBD (Homo sapiens, UniProt Q07869); test: Transient transfection of COS-7 cells, Gal4DBD/PPARαLBD transactivation, CAT reporter (II method); type: cell-based; conditions: for activation at 2 µM / activation at 20 µM / activation at 100 µM: read-out: percentage activation of the CAT reporter gene compared to reference compound WY-14.643 2 μM taken as 100%
T1 construct: expressed in transfected cells; host or cells: COS-7 (monkey kidney fibroblasts)
T1 sequence (Q07869 239-466 limits assumed): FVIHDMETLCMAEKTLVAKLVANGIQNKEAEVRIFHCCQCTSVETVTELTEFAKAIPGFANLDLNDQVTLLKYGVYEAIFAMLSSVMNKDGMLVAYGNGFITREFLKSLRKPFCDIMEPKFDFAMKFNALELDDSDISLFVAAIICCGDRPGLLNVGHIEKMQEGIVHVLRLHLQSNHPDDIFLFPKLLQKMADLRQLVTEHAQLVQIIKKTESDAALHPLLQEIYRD
From the text: Transient Transfection of Eukaryotic Cells to Evaluate the Agonist Activity of PPARα Ligands (II Method)
An alternative transactivation system, which differs mainly in the way the receptor is positioned onto the DNA, and depending on how the event of ligand binding is translated into transcriptional activation, was used.
In this model eukaryotic cells were transiently transfected with an expression vector encoding a fusion protein between the DNA binding domain (DBD) of the yeast Gal4 transcription factor and the ligand binding domain (LBD) of the PPARα (Gal4DBD/PPARαLBD). The reporter vector containing 5 copies of the high affinity binding site for Gal4 (named UAS, upstream activating sequence) upstream of a strong viral promoter linked to the reporter gene chloramphenicol acetyltransferase (CAT), was co-transfected. This model offered some advantages, the most important of which was the absence of interference by endogenous receptors.
Besides expression and reporter vectors, cells were transfected with a control vector pCH110 that encodes the β-galactosidase enzyme to correct for differences in transfection efficiency.
A monkey kidney fibroblast cell line (COS-7) was used. Cells were co-transfected with the plasmid carrying the gene-reporter, the expression plasmid encoding the fusion protein Gal4DBD/PPARαLBD, and the control vector pCH110. Cells were then treated with increasing concentrations of test compounds and the CAT activity was measured. Untreated cells were used as control.
Monkey kidney fibroblasts (COS-7) were routinely grown in DMEM (Dulbecco's modified Eagle's medium) supplemented with 3.7 g/l sodium bicarbonate, 4 mM L-glutamine, 4.5 g/l glucose, 1 mM sodium piruvate and 10% v/v foetal bovine serum, in the presence of streptomycin 100 μg/ml and penicillin 100 U/ml.
COS-7 cells were transiently transfected by using the multi-component lipid-based FuGENE6 Transfection Reagent that complexes with and transports DNA into the cells during transfection. Cells were seeded at 1.2×10^5 cells/well, in 12-well plates, and cultured overnight at 37° C. in a 5% v/v carbon dioxide atmosphere. Two hours before transfection the culture medium was replaced by fresh serum-free medium and then transfection was performed with FuGENE6 Transfection Reagent according to the instructions of the manufacturer. Briefly, the transfection mixture containing (for each well) 0.8 μg of the expression vector, 1.6 μg of the reporter vector, 0.8 μg of the control vector and 9 μl of FuGENE6 Transfection Reagent was added directly to the cells in the presence of serum-free medium. After 5 hours the transfection medium was replaced by 1 ml of the complete culture medium with or without the test molecules at 3 different concentrations (2, 20 and 100 μM). 2 μM Wy-14,643, a known PPARα ligand, was used as positive control.
After 48 h, the cells were washed twice with 1 ml phosphate buffer (PBS) and then harvested by scraping them in TEN buffer (Tris [hydroxymethyl] aminomethane 10 mM pH 8, ethylenediamine tetraacetic acid 1 mM, pH 8, sodium chloride 0.1 M). Following centrifugation at room temperature, for 3 min at 1000 revs per minute (rpm), cells were resuspended with 60 μl of Lysis buffer (0.25M Tris-HCl, pH 8) and lysed by three rapid freeze/thaw cycles (three 5-minute cycles). Cell debris was then removed by centrifugating at 4° C., for 15 min at 15.000 revs per minute (rpm),. Glycerol (final 10% v/v) and β-mercaptoethanol (final 5 mM) were then added (final volume 75 μl) and the cell extracts were stored at −80° C. until assayed.
The CAT activity assay was performed as follows: 20 μl of cell lysate (pre-warmed at 65° C. for 10 min to deactivate internal deacetylase enzymatic activity) were added to 10 μl of 3.5 mg/ml n-butirryl-CoA, 5 μl ([…]) of [14C]-chloramphenicol and 65 μl of distilled H20 and incubated 2 h at 37° C. Reaction was blocked by adding 200 μl of the solution xylene/2,6,10,14 tetramethyl-pentadecane (in a 1:2 v/v mixture). […]

Compound | melting point | activation at 2 µM (Gal4DBD/PPARαLBD; 2 μM) | activation at 20 µM (Gal4DBD/PPARαLBD; 20 μM) | activation at 100 µM (Gal4DBD/PPARαLBD; 100 μM) | other results
COC(=O)C(C)(C)Sc1ccc(OCCc2ccc3ccccc3c2)cc1 [ST2011, methyl 2-[4-[2-(2-naphthyl)ethoxy]phenyl-thio]isobutyrate] | 56 to 57 °C | – | – | – | –
COC(=O)C(C)(C)Sc1ccc(OCCc2ccc(Cl)cc2Cl)cc1 [ST2531, methyl 2-[4-(2-(2,4-dichloro-phenyl)ethoxy)phenylthio]isobutyrate] | 73 to 74 °C | – | – | – | –
COC(=O)C(C)(C)Sc1ccc(OCCn2c3ccccc3c3ccccc32)cc1 [ST2387, methyl 2-[4-(2-(carbazol-9-yl)ethoxy)phenyl-thio]isobutyrate] | 72 to 74 °C | – | – | – | –
COC(=O)C(C)(C)Sc1cccc(OCCc2ccc(Cl)cc2)c1 [ST2195, methyl 2-[3-[2-(4-chlorophenyl)ethoxy]phenyl-thio]isobutyrate] | – | – | – | – | Increase in HDL/cholesterol levels (%) (db/db mice; 25.0 mg/kg, 25 days): +20ρ %; Increase in HDL-cholesterol levels (%) (db/db mice): +67Δ %
COC(=O)C(C)(C)Sc1ccc(OCCn2ccc3cc(OC)ccc32)cc1 [ST2577, methyl 2-[4-[2-(1-(5-methoxy)indolyl)ethoxy]phenyl-thio]isobutyrate] | – | 98.6% | 269% | 255% | –
COC(=O)C(C)(C)Sc1ccc(OCCc2ccc(Cl)cc2)cc1 [ST1929] | – | – | – | – | Increase in HDL/cholesterol levels (%) (db/db mice; oral twice daily, 24 mg/kg, 10 days): +80 ▴ %
CC(C)(Sc1cccc(OCCc2ccc(Cl)cc2Cl)c1)C(=O)O [ST2653, 2-[3-(2-(2,4-dichlorophenyl)ethoxy)phenyl-thio]-2-isobutyric acid] | – | 132% | 199% | 204% | –
COC(=O)C(C)(C)Sc1cccc(OCCc2ccc3ccccc3c2)c1 [ST2167, methyl 2-[3-[2-(2-naphthyl)ethoxy]phenyl-thio]isobutyrate] | – | 98.1% | 360% | 463% | Increase in HDL/cholesterol levels (%) (db/db mice; 26.1 mg/kg, 25 days): +29ρ %
COC(=O)C(C)(C)Sc1cccc(OC(=O)Nc2ccc(C(F)(F)F)cc2)c1 | 66 to 67 °C | – | – | – | –
COC(=O)C(C)(C)Sc1cccc(O)c1 [ST2047, methyl 2-(3-hydroxyphenylthio)isobutyrate] | 41.5 to 42.5 °C | – | – | – | –
CC(C)(Sc1ccc(OCCc2ccc(Cl)cc2)cc1)C(=O)O [ST 2505, 2-[4-[2-(4-chlorophenyl)ethoxy]phenylthio]-2-methylpropanoic acid] | 87 to 88 °C | – | – | – | –
COc1ccc2c(ccn2CCOc2ccc(SC(C)(C)C(=O)O)cc2)c1 [ST2733, 2-[4-[2-(1-(5-methoxy)indolyl)ethoxy]phenyl-thio]isobutyric acid] | – | 77.2% | 193% | 239% | Increase in HDL/cholesterol levels (%) (db/db mice; second experiment, 26.4 mg/kg, 16 days): +70[…] %
COC(=O)C(C)(C)Sc1cccc(OCCn2c3ccccc3c3ccccc32)c1 [ST2365, methyl 2-[3-(2-(carbazol-9-yl)ethoxy)phenyl-thio]isobutyrate] | 101 to 103 °C | – | – | – | –
CC(C)(Oc1ccc(CCNC(=O)c2ccc(Cl)cc2)cc1)C(=O)O [Bezafibrate, reference compound] | – | – | – | – | Increase in HDL/cholesterol levels (%) (db/db mice; 24.8 mg/kg, 25 days): +14%
COC(=O)C(C)(C)Sc1cccc(OCCc2ccc(Cl)cc2Cl)c1 [ST2534, methyl 2-[3-(2-(2,4-dichloro-phenyl)ethoxy)phenylthio]isobutyrate] | – | 113% | 285% | 421% | Increase in HDL-cholesterol levels (%) (db/db mice): +61Δ %
COC(=O)C(C)(C)Sc1ccc(OCCn2ccc3cc(OCc4ccccc4)ccc32)cc1 [ST2562, methyl 2-[4-[2-(1-(5-benzyloxy)indolyl)ethoxy]phenyl-thio]isobutyrate] | – | 139% | 291% | 249% | –
CC(C)(Sc1ccc(OCCn2ccc3ccccc32)cc1)C(=O)O [ST2622, 2-[4-[2-(1-indolyl)ethoxy]phenyl-thio]-isobutyric acid] | – | 105% | 231% | 311% | Increase in HDL-cholesterol levels (%) (db/db mice): +54Δ %
COC(=O)C(C)(C)Sc1ccc(OCCn2ccc3ccccc32)cc1 [ST1983] | – | – | – | – | percentage activation of the CAT reporter gene compared to reference compound WY-14.643 2 μM taken as 100% (Gal4DBD/PPARαLBD; 2 μM): 150%; percentage activation of the CAT reporter gene compared to reference compound WY-14.643 2 μM taken as 100% (Gal4DBD/PPARαLBD; 20 μM): 391.2%; percentage activation of the CAT reporter gene compared to reference compound WY-14.643 2 μM taken as 100% (Gal4DBD/PPARαLBD; 100 μM): 1372%; Increase in HDL-cholesterol levels (%) (db/db mice): +69Δ %
CC(C)(Oc1ccc(C2CC2(Cl)Cl)cc1)C(=O)O (stereo not shown) [Ciprofibrate, reference compound] | – | – | – | – | Increase in HDL/cholesterol levels (%) (db/db mice; oral twice daily, 20 mg/kg, 14 days): +52 ▴ %
CC(C)(Sc1ccc(O)cc1)C(=O)O [ST1981, 2-(4-hydroxyphenylthio)isobutyric acid] | 152 to 154 °C | – | – | – | –
COC(=O)C(C)(C)Sc1ccc(OC(=O)Nc2ccc(C(F)(F)F)cc2)cc1 | 110 to 111 °C | – | – | – | –
CC(C)(Sc1ccc(OCCn2ccc3cc(OCc4ccccc4)ccc32)cc1)C(=O)O [ST2740, 2-[4-[2-(1-(5-benzyloxy)indolyl)ethoxy]phenyl-thio]isobutyric acid] | – | 150% | 177% | 115% | –
